{"source": "patent US20090280483A1", "about": "“Methods for Screening Interleukin-6 (IL-6) Signal Transduction Inhibitors” (priority 2005, published 2009)", "key": {"[1]": {"tested_on": "KT-3 cells", "experiment": "Negative screening: IL-6-dependent proliferation of KT-3 cells (FACS)", "assay_type": "cell-based", "conditions": "10 μM (No. 4 at 2 μM), human IL-6 5 ng/ml, 48 hours", "procedure": "Human tumor cell line KT-3 cells known to have the property of proliferating by IL-6 stimulation were used for negative screening.\nKT-3 cells were grown to confluency, and plated on 6-well plates at 1×10^5 cells/well in RPMI medium supplemented with 10% fetal calf serum (FCS) containing human IL-6 (5 ng/ml). After incubation for 3 hours, dimethyl sulfoxide (DMSO) and the 18 compounds (Nos. 1-18) each at a final concentration of 10 μM (except for No. 4 at 2 μM) were added, and incubation was continued for 48 hours.\nThe human tumor cell line KT-3 cells treated as above were suspended at about 1×10^6 cells/100 μl in RPMI medium supplemented with 10% FCS. Then, FSC/SSC dot plots of these cells were obtained by using FACS Calibur (Becton Dickinson)."}, "[2]": {"target": "T1, STAT3 (Mus musculus, UniProt P42227)", "T1 construct": "Exponentially proliferating M1 cells cultured in RPMI medium; endogenous in cells; host or cells: M1 cells", "T1 sequence (P42227 whole entry)": "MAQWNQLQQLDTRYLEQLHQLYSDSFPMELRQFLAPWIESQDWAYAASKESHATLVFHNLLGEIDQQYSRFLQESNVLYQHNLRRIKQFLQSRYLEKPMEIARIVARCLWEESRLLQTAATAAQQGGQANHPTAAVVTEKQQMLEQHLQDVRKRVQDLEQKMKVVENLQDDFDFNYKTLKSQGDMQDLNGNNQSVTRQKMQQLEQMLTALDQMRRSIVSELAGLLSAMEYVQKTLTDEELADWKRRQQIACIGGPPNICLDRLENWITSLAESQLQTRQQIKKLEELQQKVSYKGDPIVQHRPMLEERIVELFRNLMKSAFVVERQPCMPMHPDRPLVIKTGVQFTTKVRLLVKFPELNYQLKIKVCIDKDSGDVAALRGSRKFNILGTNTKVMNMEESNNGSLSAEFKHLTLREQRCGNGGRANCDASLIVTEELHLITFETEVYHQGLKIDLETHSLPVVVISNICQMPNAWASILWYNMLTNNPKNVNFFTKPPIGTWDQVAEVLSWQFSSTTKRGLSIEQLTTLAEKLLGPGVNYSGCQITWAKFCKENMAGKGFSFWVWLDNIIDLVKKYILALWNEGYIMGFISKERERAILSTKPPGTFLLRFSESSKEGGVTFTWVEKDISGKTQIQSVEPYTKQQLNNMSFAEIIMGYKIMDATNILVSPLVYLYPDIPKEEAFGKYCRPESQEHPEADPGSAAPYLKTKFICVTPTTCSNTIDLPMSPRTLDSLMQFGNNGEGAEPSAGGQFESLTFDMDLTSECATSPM", "experiment": "Western blotting of IL-6-induced tyrosine phosphorylation of STAT3 in M1 cells", "assay_type": "cell-based, murine", "procedure": "Exponentially proliferating M1 cells cultured in RPMI medium supplemented with 10% fetal calf serum (FCS) in culture dish were treated with dimethyl sulfoxide (DMSO) and Compound No. 1, 2, 7, 10, 13, 14 or 16 at a final concentration of 10 μM for 30 minutes. Then, the cells were divided into two equal parts and incubated with or without murine IL-6 at a final concentration of 10 ng/ml for further 1 hour. Then, the M1 cells were suspended at a density of 1×10^7 cells/ml in lysis buffer (0.5% Triton X-100, 50 mM Tris-HCl, (pH7.5), 0.1 mM EDTA, 150 mM NaCl, 200 μM Na3VO4, 50 mM NaF, 1 mM dithiothreitol (DTT), 0.4 mM phenylmethylsulfonyl fluoride (PMSF), 3 μg/mL aprotinin, 2 μg/mL pepstatin A, 1 μg/mL leupeptin) and placed on ice for 30 minutes. The precipitate was removed by centrifuging the cell lysate at 12000 g for 15 minutes.\nThe samples thus obtained were separated by sodium dodecyl sulfate-polyacrylamide gel electrophoresis (SDS-PAGE). After the electrophoresis, the gel was placed on a PVDF transfer membrane prewetted in methanol for 10-20 seconds and then soaked in transfer buffer (25 mM tris, 192 mM glycine, 10% methanol, 0.1% SDS), and the assembly was sandwiched between two layers each consisting of 5 sheets of filter paper soaked in transfer buffer, whereby proteins were transferred to the transfer membrane using a semi-dry transfer method.\nAfter transfer, the transfer membrane was shaken in blocking buffer (5% BSA, 1% BSA, 0.1% NaN3) for 30 minutes or more. Then, the membrane was washed with PBST (137 mM NaCl, 2.7 mM KCl, 1.5 mM KH2PO4, 8.1 mM Na2HPO4, 0.05% Tween20) three times for 5 minutes by shaking. The membrane was shaken for 60 minutes in an anti-STAT3 polyclonal antibody (C-20, Santa Cruz Biotechnology, Santa Cruz, Calif.) and an anti-phosphorylated STAT3 monoclonal antibody (B-7, Santa Cruz Biotechnology) as primary antibodies both diluted 1:1000 in PBST.\nThen, the membrane was washed with PBST three times for 5 minutes by shaking. […]"}, "[3]": {"target": "T2, STAT3 (Homo sapiens, UniProt P40763)", "T2 construct": "Exponentially proliferating 293T cells cultured in Dulbecco's Modified Eagle's Medium; endogenous in cells; host or cells: 293T cells", "T2 sequence (P40763 whole entry)": "as the sequence (P42227 whole entry) above, with D760E counted along it", "experiment": "Luciferase assay of IL-6-induced transcriptional activity of STAT3 in 293T cells", "assay_type": "cell-based", "conditions": "GFAP promoter firefly luciferase reporter, 20 μM for 1 hour, then human IL-6 10 ng/ml for 16 hours", "procedure": "A reporter vector (2 μg) containing the firefly luciferase gene linked downstream of the glial fibrillary acidic protein (GFAP) gene promoter sequence and an internal control vector (0.1 μg) containing the EF1 gene promoter linked to the Renilla luciferase gene were transfected into 293T cells at 1×10^6 cells/well in 12-well plates using Lipofectamine Plus Reagent (Life Technologies, Bethesda, Md.) as instructed by the manufacturer. Twenty-three hours after the transfection, dimethyl sulfoxide (DMSO) and Compounds No. 1, 2, 4, 7, 10, 13, 14 and 16 each at a final concentration of 20 μM were added. One hour after the compounds were added, the cells treated with each compound were divided into two equal parts and stimulated or not with human IL-6 at a final concentration of 10 ng/ml. After 16 hours, cell extracts were prepared from the cells and measured for the specific activity of firefly luciferase to Renilla luciferase using Dual luciferase reporter system (Promega, Madison, Wis.)."}, "[4]": {"tested_on": "ERK1/2", "experiment": "Western blotting of IL-6-induced phosphorylation of ERK1/2 in M1 cells", "assay_type": "cell-based", "conditions": "murine IL-6 10 ng/ml, time course 0 to 24 hours"}, "[5]": {"target": "T2, STAT3", "experiment": "Western blotting of IL-6-induced tyrosine phosphorylation of STAT3 in 293T cells", "assay_type": "cell-based", "conditions": "20 μM for 1 hour, then IL-6 10 ng/ml for 16 hours", "procedure": "Exponentially proliferating 293T cells cultured in Dulbecco's Modified Eagle's Medium (DMEM) supplemented with 10% fetal calf serum (FCS) in culture dish were incubated with dimethyl sulfoxide (DMSO) and Compounds No. 1, 2, 4, 7, 10, 13, 14 or 16 at a final concentration of 20 μM for 1 hour. Then, the cells were divided into two equal parts and incubated with or without murine IL-6 at a final concentration of 10 ng/ml for further 16 hours. Then, the 293T cells were suspended at a density of 1×10^7 cells/ml in lysis buffer, and placed on ice for 30 minutes. The precipitate was removed by centrifuging the cell lysate at 12000 g for 15 minutes.\nThe subsequent Western blot step was performed by the method described above."}}}
{"smiles": "Br.O=[N+]([O-])c1ccc(-c2csc(Nc3cc(C(F)(F)F)cc(C(F)(F)F)c3)n2)cc1", "note": "[Compound No. 1]", "values": [{"measurement": "inhibition of IL-6-dependent proliferation of KT-3 cells", "setting": "[1]", "result": "inhibition of cell proliferation"}]}
{"smiles": "Br.O=[N+]([O-])c1ccc(-c2csc(Nc3cc(C(F)(F)F)cc(C(F)(F)F)c3)n2)cc1", "note": "[compound 13]", "values": [{"measurement": "inhibition of tyrosine phosphorylation of STAT3", "setting": "[2]; 10 μM for 30 minutes, then murine IL-6 10 ng/ml for 1 hour", "result": "obvious inhibition"}, {"measurement": "inhibition of tyrosine phosphorylation of STAT3 (time course)", "setting": "[2]; 10 μM, IL-6 10 ng/ml, at 3 hours or later after the compounds were added", "result": "inhibition"}]}
{"smiles": "Br.O=[N+]([O-])c1ccc(-c2csc(Nc3cc(C(F)(F)F)cc(C(F)(F)F)c3)n2)cc1", "note": "[Compound No. 2]", "values": [{"measurement": "inhibitory effect on the transcriptional activity of STAT3", "setting": "[3]", "result": "obvious inhibitory effect"}, {"measurement": "inhibition of tyrosine phosphorylation of STAT3 (time course)", "setting": "[2]; murine IL-6 10 ng/ml, at 3, 6, and 24 hours after the compound was added", "result": "obvious inhibition"}, {"measurement": "influence on the phosphorylation of ERK1/2 induced by IL-6", "setting": "[4]", "result": "no influence"}, {"measurement": "inhibition of tyrosine phosphorylation of STAT3", "setting": "[5]", "result": "obvious inhibition"}]}
